# Oligonucleotides are written 5' to 3', each unit as a sugar letter and its base; * is a phosphorothioate linkage, no mark a phosphodiester; rarer units and linkages stand in square brackets, end groups in braces. Plain capitals give the bases only. d = 2'-deoxy (DNA)
# Assays:
# XIAP protein [1] = experiment: XIAP protein knock-down in H460 cells (western blot, densitometry); type: cell-based, human
# Method: FIGS. 3 and 4 are graphs showing the effects of 4×4 mixed backbone (MBO) FG8 or E12 oligonucleotides in amounts of 31 nM (FIG. 3) or 63 nM (FIG. 4). H460 lung carcinoma cells were transfected for 18 hours on one, two, or three consecutive days using 125 nM MBOs and Lipofectamine 2000. Samples for western analysis were harvested at the indicated time. Scanning densitometry was performed, and XIAP protein levels were normalized to GAPDH and compared to a mock control set to 100%. The indicated percentages express % XIAP protein knockdown versus specific scrambled controls.
# (§1) One day prior to transfection, H460 cells were plated in 6- or 96-well tissue culture plates. Phosphorothioate antisense oligonucleotides were delivered into cells with Lipofectamine 2000 (Life Technologies) in the form of liposome-oligonucleotide complexes. Following a 4.5 or 6 h transfection, the transfection medium was replaced with RPMI medium containing 10% FBS, and the cells incubated for another 24 or 48 h.
# (§2) The cells or tumor tissue samples were lysed with ice-cold lysis buffer (50 mM Tris, 150 mM NaCl, 2.5 mM EDTA, 0.1% SDS, 0.5% sodium deoxycholate, 1% NP-40, 0.02% sodium azide) containing protease inhibitors (Complete-Mini protease inhibitor tablets; Boehringer Mannheim GmBH, Mannheim, Germany). After incubation for 30 min on ice, samples were centrifuged at 10,000 rpm for 15 min, and stored at −20° C. Protein content in the lysed extracts was determined using a detergent-compatible Bio-Rad assay (Bio-Rad Labs, Hercules, Calif.). Equal amounts of protein (40 μg/lane) were separated on 12% SDS-polyacrylamide gels or 4-15% gradient SDS-polyacrylamide pre-made gels (Bio-Rad) and transferred to nitrocellulose membranes. Primary antibodies against XIAP, Bcl-2 (DAKO, Glostrup, Denmark), Bax (Sigma, St. Louis, Mo.), β-actin (Sigma), caspase-3 (BD PharMingen, San Diego, Calif.), and PARP (BD PharMingen) were used. The secondary antibody was the appropriate horseradish-conjugated anti-mouse or anti-rabbit IgG (Promega, Madison, Wis.). Proteins were detected by enhanced chemiluminescence (ECL; Amersham Pharmacia Biotech, Buckinghamshire, England) and visualized after exposure to Kodak autoradiography film. Scanning densitometry (Molecular Dynamics, Sunnyvale, Calif.) was performed to quantify band intensities by volume/area integration. The amount of XIAP, caspase-3, Bcl-2 and Bax in cells was normalized to their respective lane β-actin levels, upon stripping and reprobing.
# pro-caspase-3, PARP = experiment: Pro-caspase-3 and PARP protein in H460 cells (western blot); type: cell-based, human; settings: 1.2 μM
# Method: as §1, §2
# Bcl-2 and Bax = experiment: Bcl-2:Bax ratio in H460 cells (western blot); type: cell-based, human; settings: 1.2 μM
# Method: FIGS. 11A and 11B are schematic illustrations showing XIAP oligonucleotide-mediated effects on caspase activation. The effect of XIAP oligonucleotides F3, G4, or C5, or their respective RP and SC ODN controls at 1.2 μM on the expression of pro-caspase-3, PARP (both full length (116 kDa) and processed (85 kDa)) (FIG. 10A) and Bcl-2 and Bax protein levels (FIG. 10B) in transfected H460 cells compared to control is shown. Proteins expression was analyzed by western blotting. Bcl-2 and Bax protein levels were normalized to cellular actin levels and quantified by densitometry. […]
# The cells or tumor tissue samples were lysed with ice-cold lysis buffer (50 mM Tris, 150 mM NaCl, 2.5 mM EDTA, 0.1% SDS, 0.5% sodium deoxycholate, 1% NP-40, 0.02% sodium azide) containing protease inhibitors (Complete-Mini protease inhibitor tablets; Boehringer Mannheim GmBH, Mannheim, Germany). […] Protein content in the lysed extracts was determined using a detergent-compatible Bio-Rad assay (Bio-Rad Labs, Hercules, Calif.). […] Proteins were detected by enhanced chemiluminescence (ECL; Amersham Pharmacia Biotech, Buckinghamshire, England) and visualized after exposure to Kodak autoradiography film. Scanning densitometry (Molecular Dynamics, Sunnyvale, Calif.) was performed to quantify band intensities by volume/area integration. […]
# [2] = test system: subcutaneous H460 human non-small-cell lung tumor xenografts; experiment: Systemic (i.p.) oligonucleotides with or without vinorelbine in H460 xenografts; type: in vivo, SCID-RAG2 mice; settings: for antitumor efficacy on H460 xenografts (in words): systemic, oligonucleotide 15 mg/kg i.p., VNB 5 or 10 mg/kg i.v.
# Method: (§3) Initial systemic PS-oligonucleotide studies were designed without any chemotherapeutic agents. SCID-RAG2 mice were inoculated with H460 human lung carcinoma cells (s.c. shoulder injection of 10^6 cells) and treatments with G4 and F3 AS PS-oligonucleotides, as well as a scrambled control, were initiated three days after tumor inoculation. Nucleobase oligomer injections were administered i.p. at 12.5 mg/kg three times a week for three weeks. At the end of the treatment period, mean tumor sizes in the groups treated with either G4 or F3 AS oligonucleotides were ˜50% smaller than in the group treated with a scrambled control oligonucleotides (FIG. 15). The same treatment protocol was tested on female SCID-RAG2 mice inoculated orthotopically with MDA-MB-435/LCC6 human breast carcinoma cells. Two weeks after the last treatment (day 35) tumor volumes of mice treated with F3, C5 or G4 AS oligonucleotides were 70%, 60%, and 45%, respectively, smaller than vehicle controls (FIG. 16).
# We conducted additional examination of the antitumor effects of G4 AS oligonucleotides in SCID-RAG2 mice bearing xenografts of H460 human non-small-cell lung tumors implanted subcutaneously. Saline-treated control tumors grew reproducibly to a size of 0.75 cm^3 within approximately 24 days (FIG. 17). Oligonucleotide treatments were initiated three days after tumor cell inoculation. G4 AS oligonucleotides (5 to 15 mg/kg) were administered using a treatment schedule of i.p. injections given once a day on days 3-7, 10-14, and 17-21. The treatment with 5 or 15 mg/kg G4 AS oligonucleotides greatly delayed tumor growth: on day 24 mean tumor sizes were 0.75, 0.45 and 0.29 cm^3 in control, 5 and 15 mg/kg treated groups, respectively (FIG. 18A). There was a dose-dependent inhibition of tumor growth. […] A dose of 15 mg/kg was selected for the future combination treatment regimens with anticancer drugs.
# The human non-small cell lung cancer cell line (large cell type) NCI-H460 (H460) was obtained from ATCC and maintained in RPMI 1640 supplemented with 10% FCS at 37° C. in a humidified atmosphere containing 5% CO2. Cells were used in exponential growth phase, up to a maximum of 25 in vitro passages. Male SCID-RAG2 mice (7-9 weeks old, 23-26 g) were obtained from British Columbia Cancer Agency Joint Animal Facility breeding colony and kept in aseptic environments. A tumor model of NCI-H460 cells in SCID-RAG2 mice was established by subcutaneous implantation of 1×10^6 NCI-H460 cells on the back of mice.
# (§4) Efficacy experiments were conducted in male RAG2 immunodeficient mice bearing NCI-H460 tumours or female RAG2 mice bearing LCC6 tumors. Treatments were commenced on day 3 after tumor inoculation. Saline (controls), G4 AS oligonucleotides (5 or 15 mg/kg), or G4 SC oligonucleotides (5 or 15 mg/kg) were administered i.p. daily for five doses a week over a three week regimen. Vinorelbine (VNB, 5 or 10 mg/kg) was administered i.v. via the tail vein, either alone or in combination with oligonucleotides, at day 3, 7, 11 and 17 after tumor inoculation. When oligonucleotides were administered in combination with VNB, the drug treatment was performed four hours after ODN treatment.
# (§5) Mice were observed daily. Body weight measurements and signs of stress (e.g., lethargy, ruffled coat, ataxia) were used to detect possible toxicities. Animals with ulcerated tumor, or tumor volumes of 1 cm^3 or greater were killed. Digital caliper measurements of tumors were converted into mean tumor size (cm^3) using the formula: ½[length (cm)]×[width (cm)]^2. An average tumor size per mouse was used to calculate the group mean tumor size±SE (n=6 mice) from at least two independent experiments per group.
# [3] = test system: MDA-MB-435/LCC6 human breast carcinoma xenografts; experiment: Systemic (i.p.) PS-oligonucleotides in LCC6 breast carcinoma xenografts; type: in vivo, female SCID-RAG2 mice; settings: 12.5 mg/kg i.p.; day 35, two weeks after the last treatment
# Method: as §3, §4
# [4] = mouse, in vivo
# Description: as §5
# XIAP RNA = XIAP RNA knock-down in T24 cells (TaqMan quantitative PCR); type: cell-based, human
# Outline: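 T24 bladder carcinoma cells (1.5×10^4/well) cultured 24 h in antibiotic-free McCoy's medium, then transfected with antisense oligonucleotides using Lipofectamine-based conditions optimized on survivin knock-down. XIAP mRNA measured by TaqMan RT-qPCR, quantified relative to GAPDH by the comparative Ct method.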
# XIAP protein [5] = experiment: XIAP protein knock-down in T24 cells (XIAP ELISA, relative to total protein); type: cell-based, human
# Outline: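 T24 bladder carcinoma cells transfected with antisense oligonucleotides using Lipofectamine plus in serum-free, antibiotic-free McCoy's medium for three hours, then serum added. XIAP protein measured by colorimetric sandwich ELISA on day 4, normalized to total cellular protein and compared with mock transfection.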
# XIAP mRNA = XIAP mRNA knock-down in H460 cells (real-time RT-PCR / TaqMan); type: cell-based, human
# Outline: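 NCI-H460 cells transfected with phosphorothioate antisense oligonucleotides via Lipofectamine 2000; RNA isolated after 6 h treatment. XIAP mRNA quantified by one-step TaqMan real-time RT-PCR, comparative Ct (threshold 30× baseline SD), normalized to GAPDH and expressed relative to untreated control cells.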
# T24 cells = experiment: Visual inspection of T24 cell morphology after transfection; type: cell-based, human; settings: twenty hours after transfection
# Description: The occurrence of cytoxicity induced by oligonucleotide E4 was examined by visually inspecting T24 cells that were left untreated, mock transfected, or transfected with E4, E4 scrambled, E4 reverse polarity, or E4 mismatched oligonucleotides. Twenty hours after transfection, the cells were examined for morphology (FIG. 5D).
# H460 cells [6] = experiment: Apoptotic flow cytometric assay (PI staining, hypo-diploid DNA content); type: cell-based, human; settings: 1.2 μM, untreated control 16.6%
# Method: Cells were treated with liposome-oligonucleotide complexes for 4.5 h, and incubated for another 48 h in the medium without transfection reagent at 37° C. Following incubation, cells were harvested, washed twice with sample buffer (0.5% glucose in PBS without Ca^++ and Mg^++), and fixed in cold 70% ethanol at 4° C. for at least 18 hrs. Samples were centrifuged at 3000 rpm for 10 min, then resuspended in sample buffer containing 50 μg/ml propidium iodide (PI) and 400 U/ml RNase A. Samples were incubated for 30 min at room temperature and 30 min on ice, followed by flow cytometry analysis. EXPO Software (Applied Cytometry Systems, Sacramento, Calif.) was used to generate histograms, which were used to determine the cell cycle phase distribution after debris exclusion. The Sub G1/G0 cell fraction was considered as representative for apoptotic cells.
# H460 cells [7] = experiment: Nuclear morphology (DAPI staining); type: cell-based, human; settings: 1.2 μM
# Method: Cells were treated with liposome-oligonucleotde complexes for 4.5 h, and incubated for another 48 h at 37° C. in the medium without transfection reagent or oligonucleotides. Cells were harvested and stained with 0.10 μg/ml DAP1 (4′, 6-diamidino-2-2-phenylindole) for 30 min at room temperature. Cells were placed on a glass slide, cytospun, and viewed with a Leica microscope and 40× objective lens under UV fluorescent illumination. Digital images were captured using Imagedatabase V. 4.01 Software (Leica, Germany).
# H460 cells [8] = experiment: H460 cell growth, viability or death (MTT assay); type: cell-based, human; settings: 1.2 μM
# Method: Growth inhibition of […] cells was determined by the colorimetric MTT cell viability/proliferation assay. In brief, cells were treated with liposome-oligonucleotide complexes for 4.5 h, then incubated for another 48 h at 37° C. in medium without transfection reagent or oligonucleotides in the presence or absence of anticancer drugs. MTT (25 μg/well) was added to each well, and the plates incubated for 3 h at 37° C. Following the incubation step, the colored formazan product was dissolved by the addition of 200 μl DMSO. Plates were read using the microtiter plate reader (Dynex Technologies Inc., Chantilly, Va.) at a wavelength of 570 nm. The percentage of surviving cells in wells treated with oligonucleotides was normalized to untreated controls. All assays were performed in triplicate.
molecule,measurement,setting,value
"ATCTTCTCTTGAAAATAGG (DNA, all phosphorothioate, methylation of C not given here) [F3 AS]",reduction of XIAP protein level,"XIAP protein [1]; 1.2 μM, 24 h after the end of transfection",50%
same,reduction of pro-caspase-3 protein levels compared to untreated control,"pro-caspase-3, PARP",40%
same,ratio of Bcl-2:Bax,Bcl-2 and Bax,unchanged
same,mean tumor size smaller than scrambled control group,"[2]; PS-oligonucleotides 12.5 mg/kg i.p. three times a week for three weeks, end of treatment",~50%
same,tumor volumes smaller than vehicle controls,[3],70%
"CCC1=C[C@@H]2CN(C1)Cc1c([nH]c3ccccc13)[C@@](C(=O)OC)(c1cc3c(cc1OC)N(C)[C@H]1[C@@](O)(C(=O)OC)[C@H](OC(C)=O)[C@]4(CC)C=CCN5CC[C@]31[C@@H]54)C2 [VNB, vinorelbine, reference compound]",average tumor size,"[2]; day 29, VNB 5 mg/kg, oligonucleotides 15 mg/kg",0.59±0.04 cm^3
same,antitumor efficacy on H460 xenografts (in words),[2],significant tumor growth suppression
same,signs of toxicity in mice,[4],without showing significant signs of undesirable toxicity
CGCACGGTATCTCCTTCAC (antisense; chemistry not fully specified) [Code E4],XIAP down-regulation T24 RNA,XIAP RNA,47%
same,XIAP down-regulation T24 protein,XIAP protein [5],34%
same,"XIAP protein levels relative to total protein, compared to mock transfection (in words)",XIAP protein [5]; first screen of the library,some decrease
same,XIAP down-regulation H460 RNA,XIAP mRNA,51%
same,signs of toxicity (cell morphology),T24 cells,showed signs of toxicity
"GGCTCTTTGCCCACTGAAT (dG*dG*dC*dT*dC*dT*dT*dT*dG*dC*dC*dC*dA*dC*dT*dG*dA*dA*dT) [G4 SC, reference compound]",effect on XIAP protein levels (in words),XIAP protein [1],little XIAP loss
same,effect on caspase-3 or PARP protein expression,"pro-caspase-3, PARP",did not have any effect
same,hypo-diploid DNA content of cells,H460 cells [6],22.1%
same,nuclear morphological changes characteristic of apoptosis,H460 cells [7],Few cells showed these morphological changes
same,cell death,H460 cells [8]; H460 cells,less than 10%
same,reduction of H460 cell growth relative to untreated control,"H460 cells [8]; MTT, 48 hours after transfection",less than 10%
same,"tumors reduced in size, % of control tumors","[2]; 15 mg/kg, day 21 or 24",24%
same,antitumor efficacy on H460 xenografts (in words),[2],no therapeutic activity

# Reference: patent US8012944B2, “Method for treating cancer using IAP antisense oligomer and chemotherapeutic agent” (Pharmascience Inc., priority 2003, dated 2011)
